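Exposure lasted 48 hours, with cells grown in 96-well plates and compounds tested at five concentrations. GI50 = concentration required for 50% inhibition of growth. The concentration for full growth arrest is given as TGI.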 Where a SMILES comes first, the peptide text is derived from it. [ ]: non-standard residue; d: D form. The star is where a group is joined. Octanoyl = CCCCCCCC(=O)*; Aib = CC(C)(N)C(=O)O; tBu = CC(C)(C)*
Tests used:
Assay in all cases: NCI anticancer screen, dose series, 48 h
[1] = tested on: OVCAR-8 ovarian
[2] = tested on: RPMI-8226 leukemia
[3] = tested on: HOP-92 NSCLC
[4] = tested on: MALME-3M melanoma
[5] = tested on: RXF 393 renal
[6] = tested on: MDA-N
[7] = tested on: IGROV1 ovarian
[8] = tested on: SK-MEL-2 melanoma
[9] = tested on: HCT-15 colon
[10] = tested on: A498 renal
[11] = tested on: MDA-MB-435
[12] = tested on: SW-620 colon
[13] = tested on: HT29 colon
[14] = tested on: COLO 205 colon

Structure (SMILES)	TGI [1] [µM]	TGI [2] [µM]	TGI [3] [µM]	TGI [4] [µM]	TGI [5] [µM]	TGI [6] [µM]	TGI [7] [µM]	TGI [8] [µM]	TGI [9] [µM]	TGI [10] [µM]	TGI [11] [µM]	TGI [12] [µM]	TGI [13] [µM]	TGI [14] [µM]	GI50 [7] [µM]	GI50 [8] [µM]	GI50 [11] [µM]	GI50 [12] [µM]	GI50 [3] [µM]
COc1ccc(O)c(C=NCCCN=Cc2cc(OC)ccc2O)c1	69.9	74.7	65	62.7	95.2	> 100	> 100	> 100	93.1	> 100	86.4	> 100	> 100	–	–	–	–	–	–
Cc1ccc(S(=O)(=O)OC2C(C3COC(C)(C)O3)OC3OC(C)(C)OC32)cc1 (stereo not drawn)	> 100	–	> 100	> 100	> 100	> 100	> 100	> 100	> 100	> 100	> 100	> 100	> 100	–	–	–	–	–	–
CCCCCCCCCCCCCCCCOCC(COP(=O)([O-])OCC[N+](C)(C)C)OCCCCCCCCCCCCCCCC (stereo not drawn)	> 100	> 100	> 100	> 100	> 100	–	> 100	> 100	> 100	> 100	–	> 100	> 100	> 100	–	–	–	–	–
COc1cc2c3c(n(CCCNCCCNCCCn4c5c(c6ccccc6c4=O)C(=O)c4ccccc4-5)c(=O)c2cc1OC)-c1cc2c(cc1C3=O)OCO2	–	–	–	–	–	–	> 100	3.1	–	–	1.68	0.197	–	–	< 0.01	0.64	0.154	< 0.01	–
Clc1c(Cl)c2c(Cl)c(Cl)c1C[P+](c1ccccc1)(c1ccccc1)CC[P+](c1ccccc1)(c1ccccc1)Cc1c(Cl)c(Cl)c(c(Cl)c1Cl)C[P+](c1ccccc1)(c1ccccc1)CC[P+](c1ccccc1)(c1ccccc1)C2	19	4.78	6.31	7	10.9	–	12.4	6.09	24.6	24.4	–	13.6	10.3	2.89	–	–	–	–	–
c1ccc(/N=N/Nc2ccc(-c3nc4ccccc4[nH]3)cc2)nc1	47.2	11.6	40.5	29.2	32.5	34.7	28	62.5	69.9	> 100	45.7	71.5	45.2	> 100	–	–	–	–	–
O=C(c1cccnc1)N1N=C(c2ccc(Cl)cc2)CC1(O)c1cc(F)c(Cl)cc1Cl (stereo not drawn)	> 100	47.6	59.8	> 100	26.7	> 100	82.1	75.2	> 100	–	> 100	> 100	75.8	28.7	–	–	–	–	–
COc1cc([N+](=O)[O-])ccc1NC1=CC(=O)CCC1	> 100	> 100	> 100	> 100	> 100	> 100	> 100	> 100	> 100	> 100	> 100	> 100	> 100	> 100	–	–	–	–	–
O=[n+]1c2ccccc2n([O-])c2cc(Br)ccc21	47.9	61.4	–	39.7	41.1	–	18.8	56.8	32	40.2	36.5	75.7	39.1	57.2	–	–	–	–	–
Oc1ccc(Cn2c(-c3ccc(O)c(O)c3)nc3ccccc32)cc1O	25.5	46.1	41.9	41.4	> 100	> 100	66.4	39	> 100	> 100	32	42.1	84.7	31.1	–	–	–	–	–
CC(=O)Oc1ccccc1C(=O)O	> 100	> 100	–	> 100	> 100	> 100	–	> 100	> 100	–	> 100	> 100	> 100	> 100	–	–	–	–	–
CCOC(=O)CCC(NC(=O)Cc1ccc(Oc2nc3ccccc3nc2-c2cccs2)cc1)C(=O)OCC (stereo not drawn)	14.2	> 100	47.7	> 100	27.5	–	> 100	> 100	> 100	84.1	> 100	> 100	> 100	> 100	–	–	–	–	–
CCO[C@]12C[C@H](OC)[C@@]3(O)CC(C1[C@H]3O)C13C4C2[C@H](OC)C1[C@](COC)(CN4CC)[C@H](O)C[C@@H]3OC (stereo partly drawn)	> 100	> 100	–	–	> 100	–	> 100	–	> 100	–	–	> 100	> 100	> 100	–	–	–	–	–
NS(=O)(=O)c1ccc(CNc2nc(-c3cccs3)nc3ccc(I)cc23)cc1	37.7	49.5	54.4	27.9	43.5	41.9	30.6	32.9	28.9	–	27.8	83.8	39.2	29.9	–	17.8	–	–	–
COc1ccc(N2C(=O)C3c4[nH]c5cccc(C)c5c4C4CCC(C(C)(C)C)CC4C3C2=O)cc1 (stereo not drawn)	> 10	> 10	–	> 10	> 10	> 10	> 10	> 10	> 10	> 10	> 10	> 10	> 10	> 10	–	–	–	–	–
CC#C[I+]c1ccccc1	31.2	–	30.8	38.2	36.9	–	> 100	> 100	–	> 100	–	–	34.5	26	–	–	–	–	–
O=[N+]([O-])c1cc(-[n+]2cc([O-])on2)ccc1F	30.9	> 100	32.6	29	27.2	30.7	28.3	31	52.8	–	29.8	38.3	33.3	35.2	–	–	–	–	–
O=[N+]([O-])O.[Ga]	> 7940	2270	3700	1320	> 9480	> 10000	> 7220	3270	5780	2590	> 10000	> 10000	> 7200	> 9550	–	325	–	–	673
CCCCCCCC(=O)NC(C)(C)C(=O)NC(COC(C)(C)C)C(=O)NC(CC(C)C)C(=O)NC(C)(C)C(=O)NC(COC(C)(C)C)C(=O)NC(COC(C)(C)C)C(=O)NC(CC(C)C)C(=O)NC(C)(C)C(=O)NC(COC(C)(C)C)C(=O)NC(C(=O)NC(CC(C)C)C(=O)OC)C(C)CC (stereo not drawn) (Octanoyl-[Aib]S(tBu)L[Aib]S(tBu)S(tBu)L[Aib]S(tBu)IL-OMe; configuration not given here)	> 25	11.2	10.6	–	9.99	> 25	12.5	13.5	> 25	14	> 25	> 25	11.9	15.8	–	–	–	–	–
CCCCN1C(=O)NC(Cc2ccccc2)C1=O (stereo not drawn)	> 100	–	–	> 100	> 100	–	–	> 100	–	–	–	> 100	> 100	–	–	–	–	–	–
Cn1c(-c2ccc(/C=N\N3CCN(/N=C/c4ccc(-c5c[n+]6ccsc6n5C)cc4)CC3)cc2)c[n+]2ccsc12	> 100	89.4	> 100	–	> 100	> 100	> 100	> 100	> 100	82.3	> 100	> 100	> 100	36.3	–	–	–	–	–
